Reference: patent US8445510B2, “Fused bicyclic kinase inhibitors” (OSI Pharmaceuticals, LLC, priority 2011, dated 2013)

Experiments:
RON = biological target: T1, RON (Homo sapiens, UniProt Q04912); assay: sfRON cell mechanistic assay (HeLa), phosphorylated RON ELISA; format: cell-based; details: HeLa cells transfected with sfRON; inhibition of phosphorylated RON; four hours incubation; at least duplicate experiments; read-out: sfRON mech IC50
T1 sequence (Q04912 913-1400): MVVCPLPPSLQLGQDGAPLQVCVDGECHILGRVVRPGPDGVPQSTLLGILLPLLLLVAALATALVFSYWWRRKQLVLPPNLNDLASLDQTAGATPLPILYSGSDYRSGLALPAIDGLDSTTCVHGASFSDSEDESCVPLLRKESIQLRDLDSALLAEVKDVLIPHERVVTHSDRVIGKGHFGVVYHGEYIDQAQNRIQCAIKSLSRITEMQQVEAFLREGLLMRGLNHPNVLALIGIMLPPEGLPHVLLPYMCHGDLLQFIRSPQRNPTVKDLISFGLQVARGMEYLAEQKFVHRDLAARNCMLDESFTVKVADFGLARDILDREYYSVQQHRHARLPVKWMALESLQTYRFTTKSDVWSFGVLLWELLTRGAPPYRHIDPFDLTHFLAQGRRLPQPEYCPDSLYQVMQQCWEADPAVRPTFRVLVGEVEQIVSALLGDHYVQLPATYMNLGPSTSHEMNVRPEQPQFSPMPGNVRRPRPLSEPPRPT
How it was run: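 HeLa cells transiently transfected with sfRON plasmid, then exposed 4 h at 37 °C to a 6-point compound series (typically 10 μM to 3 nM, 0.5% DMSO). Phospho-RON (pY1238/1239) in lysates measured by sandwich ELISA with luminescence. IC50 from 4-parameter fit of percent-of-DMSO-control data, at least duplicate runs.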

Aurora B = biological target: T2, Aurora B (Homo sapiens, UniProt Q96GD4); assay: Aurora B cell mechanistic assay (HT-29), phospho-Histone H3 (Ser10) ELISA; format: cell-based; details: HT-29 cell line; inhibition of phospho-Histone H3 (Ser10); at least duplicate experiments (italicized if single experiment); read-out: Aurora B mech IC50
T2 construct: HT-29 cells grown in complete growth media
How it was run: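 HT-29 cells treated 1 h at 37 °C with serially diluted compound, then 100 nM Calyculin A added for 30 min. Lysates assayed by phospho-Histone H3 (Ser10) ELISA at 450 nm; normalized to DMSO (100%) and a reference Aurora B inhibitor (full inhibition); IC50 by four-parameter fit.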

T2 sequence (Q96GD4 whole entry): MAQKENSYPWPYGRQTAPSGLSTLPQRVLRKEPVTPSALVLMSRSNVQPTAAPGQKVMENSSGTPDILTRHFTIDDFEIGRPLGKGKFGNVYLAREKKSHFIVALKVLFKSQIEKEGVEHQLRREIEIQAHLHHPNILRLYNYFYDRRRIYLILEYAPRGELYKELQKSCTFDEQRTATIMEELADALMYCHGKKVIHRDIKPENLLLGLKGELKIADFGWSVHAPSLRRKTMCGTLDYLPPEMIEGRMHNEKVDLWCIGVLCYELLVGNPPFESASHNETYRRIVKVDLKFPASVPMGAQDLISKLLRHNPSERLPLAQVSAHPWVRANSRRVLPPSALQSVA

## CCOc1ccc(F)c(Cl)c1[C@@H](C)c1c[nH]c2ncc(-c3cnn([C@H]4CC[C@H](O)CC4)c3C)cc12 [Example 103, trans-4-(4-{3-[(1S)-1-(2-Chloro-6-ethoxy-3-fluorophenyl)ethyl]-1H-pyrrolo[2,3-b]pyridin-5-yl}-5-methyl-1H-pyrazol-1-yl)cyclohexanol]
RON
  IC50: ≤ 200 nM
Aurora B
  IC50: > 1000 nM

## Cc1c(-c2cnc3[nH]cc([C@H](C)c4c(OC(C)C)ccc(F)c4Cl)c3c2)cnn1[C@H]1CC[C@H](O)CC1 [Example 104, trans-4-[4-(3-{(1S)-1-[2-Chloro-3-fluoro-6-(propan-2-yloxy)phenyl]ethyl}-1H-pyrrolo[2,3-b]pyridin-5-yl)-5-methyl-1H-pyrazol-1-yl]cyclohexanol]
RON
  IC50: 200 to 1000 nM
Aurora B
  IC50: 200 to 1000 nM

## Cc1c(-c2cnc3[nH]cc([C@H](C)c4c(OCC(F)(F)F)ccc(F)c4Cl)c3c2)cnn1[C@H]1CC[C@H](O)CC1 [Example 105, trans-4-[4-(3-{(1S)-1-[2-Chloro-3-fluoro-6-(2,2,2-trifluoroethoxy)-phenyl]ethyl}-1H-pyrrolo[2,3-b]pyridin-5-yl)-5-methyl-1H-pyrazol-1-yl]cyclohexanol]
RON
  IC50: ≤ 200 nM
Aurora B
  IC50: 50 to 200 nM

## COc1cc(OC)c(Cl)c([C@@H](C)c2c[nH]c3ncc(-c4cnn([C@H]5CC[C@H](O)CC5)c4C)cc23)c1Cl [Example 106, trans-4-(4-{3-[(1S)-1-(2,6-Dichloro-3,5-dimethoxyphenyl)ethyl]-1H-pyrrolo[2,3-b]pyridin-5-yl}-5-methyl-1H-pyrazol-1-yl)cyclohexanol]
RON
  IC50: 200 to 1000 nM
Aurora B
  IC50: > 1000 nM

## [2H]C([2H])([2H])Oc1ccc(F)c(Cl)c1[C@@H](C)c1c[nH]c2ncc(-c3cnn([C@H]4CC[C@H](O)CC4)c3C)cc12 [Example 107, trans-4-(4-{3-[(1S)-1-{2-Chloro-3-fluoro-6-[(^2H3)methyloxy]phenyl}ethyl]-1H-pyrrolo[2,3-b]pyridin-5-yl}-5-methyl-1H-pyrazol-1-yl)cyclohexanol]
RON
  IC50: 200 to 1000 nM
Aurora B
  IC50: > 1000 nM

## Cc1c(-c2cnc3[nH]cc(C(C#N)c4c(Cl)ccc(F)c4Cl)c3c2)cnn1[C@H]1CC[C@H](O)CC1 (stereo partly drawn) [Example 108, (2,6-Dichloro-3-fluorophenyl){5-[1-(trans-4-hydroxycyclohexyl)-5-methyl-1H-pyrazol-4-yl]-1H-pyrrolo[2,3-b]pyridin-3-yl}acetonitrile]
RON
  IC50: > 1000 nM
Aurora B
  IC50: > 1000 nM

## [2H][C@@](C)(c1c(OC)ccc(F)c1Cl)c1c[nH]c2ncc(-c3cnn([C@H]4CC[C@H](O)CC4)c3C)cc12 [Example 110, trans-4-(4-{3-[(1S)-1-(2-Chloro-3-fluoro-6-methoxyphenyl)(1-^2H)ethyl]-1H-pyrrolo[2,3-b]pyridin-5-yl}-5-methyl-1H-pyrazol-1-yl)cyclohexanol]
RON
  IC50: 200 to 1000 nM
Aurora B
  IC50: > 1000 nM

## [2H]C([2H])([2H])[C@H](c1c(OC)ccc(F)c1Cl)c1c[nH]c2ncc(-c3cnn([C@H]4CC[C@H](O)CC4)c3C)cc12 [Example 111, trans-4-(4-{3-[(1S)-1-(2-Chloro-3-fluoro-6-methoxyphenyl)(2,2,2-^2H3)ethyl]-1H-pyrrolo[2,3-b]pyridin-5-yl}-5-methyl-1H-pyrazol-1-yl)cyclohexanol]
RON
  IC50: 200 to 1000 nM
Aurora B
  IC50: > 1000 nM
